Data taken from US12162858B2, “Quinoline derivatives as inhibitors of AXL/MER RTK and CSF1R” (QURIENT CO., LTD., priority 2018, dated 2024).

molecular target: T1, Mer (Homo sapiens, UniProt Q12866); test: LanthaScreen Eu kinase binding assay for Mer; settings: comparison of compounds of present invention (**) vs compounds of WO2016/166250 (*); read-out: Binding activity Mer (Kd)
T1 construct: purchased Life Technologies
T1 sequence (Q12866 21-999): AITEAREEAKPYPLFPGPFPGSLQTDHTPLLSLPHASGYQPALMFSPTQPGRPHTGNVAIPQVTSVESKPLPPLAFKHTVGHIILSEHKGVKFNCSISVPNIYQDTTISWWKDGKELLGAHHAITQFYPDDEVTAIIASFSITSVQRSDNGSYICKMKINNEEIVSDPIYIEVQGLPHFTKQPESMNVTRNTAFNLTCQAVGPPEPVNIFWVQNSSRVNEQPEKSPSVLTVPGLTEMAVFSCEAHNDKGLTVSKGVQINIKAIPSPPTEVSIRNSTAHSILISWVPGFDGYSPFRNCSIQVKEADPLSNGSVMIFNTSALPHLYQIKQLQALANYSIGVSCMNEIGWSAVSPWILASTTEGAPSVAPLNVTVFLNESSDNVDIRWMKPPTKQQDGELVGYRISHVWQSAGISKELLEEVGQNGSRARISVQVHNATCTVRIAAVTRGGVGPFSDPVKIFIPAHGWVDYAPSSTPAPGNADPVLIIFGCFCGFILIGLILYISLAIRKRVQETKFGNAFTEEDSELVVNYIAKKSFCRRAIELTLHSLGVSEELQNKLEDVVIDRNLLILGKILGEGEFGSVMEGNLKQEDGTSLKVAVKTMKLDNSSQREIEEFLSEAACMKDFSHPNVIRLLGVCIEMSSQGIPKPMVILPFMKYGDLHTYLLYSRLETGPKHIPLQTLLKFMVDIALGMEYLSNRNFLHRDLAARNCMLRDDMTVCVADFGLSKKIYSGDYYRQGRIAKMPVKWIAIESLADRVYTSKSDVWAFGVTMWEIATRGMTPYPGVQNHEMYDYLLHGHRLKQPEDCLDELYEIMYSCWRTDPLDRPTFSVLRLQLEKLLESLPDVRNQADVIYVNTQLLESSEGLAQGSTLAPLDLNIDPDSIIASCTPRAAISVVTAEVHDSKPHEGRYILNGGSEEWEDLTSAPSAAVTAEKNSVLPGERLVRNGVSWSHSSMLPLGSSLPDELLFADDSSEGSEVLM
Description: LanthaScreen® Eu Kinase Binding assays were conducted at Life Technologies using the manufacturer's specifications for each kinase indicated.
Briefly, the principle behind this assay is based upon the binding and displacement of an Alexa Fluor 647-labeled tracer to the kinase of interest. Binding of the tracer to the kinase is detected using an EU-labeled anti-tag antibody. Simultaneous binding of both the tracer and antibody to the kinase gives rise to a FRET-signal. Binding of an inhibitor to the kinase competes for binding with the tracer, resulting in a loss of FRET-signal.
A given compound was diluted in DMSO to make a stock compound solution. The stock compound solution was serially diluted over eight steps in DMSO. Each diluted compound solution in DMSO was diluted in kinase buffer. Afterwards four kinds of working solution were prepared. First, Tracer-Working solution consists of Tracer 236 and Kinase Buffer. Second, Axl, Mer, Tyro3 or Met/anti-GST-AB-Working solution contained one of the kinases Axl, and Mer or anti-GST-AB (=anti glutathione-S-transferase antibody) in Kinase Buffer. Third, anti-GST-AB-Working solution was made with anti-GST-AB and Kinase Buffer. Last, in the DMSO-Working solution DMSO was added to Kinase Buffer to a final concentration to 3%. Each of the four kinds of working solutions were separately added to the assay plate and then incubated for 1 h at room temperature. After incubation, the assay plate was measured with respect to the FRET-Signal with the EnVision (Perkin Elmer) using the program LanthaHTRF-Assay. Data evaluation was done in the Quattro Workflow software. Kd (the equilibrium dissociation constant) values were calculated relative to vehicle (DMSO) control wells.

Row | Kd | SMILES
1 | 0.2 nM | COCCn1cc(OCC(F)(F)F)c(C(=O)Nc2ccc(Oc3ccnc4cc(OC)c(OC)cc34)cn2)n1 [Compound 10]
2 | 12 nM | COc1cc2nccc(Oc3ccc(NC(=O)c4n[nH]cc4OCC(F)(F)F)nc3)c2cc1OC [Compound 16]
3 | 1.3 nM | COc1cc2nccc(Oc3ccc(NC(=O)c4nn(CC5COC5)cc4OCC(F)(F)F)nc3)c2cc1OC [Compound 92]

Row | SMILES | Kd
4 | CCn1cc(OCC(F)(F)F)c(C(=O)Nc2ccc(Oc3ccnc4cc(OC)c(OC)cc34)cn2)n1 [Compound 4] | 1.6 nM

same assay, conditions: read-out: Mer kinase binding activity (Kd)

Row | SMILES | Kd
5 | CCn1cc(OCC(F)(F)F)c(C(=O)Nc2ccc(Oc3ccnc4cc(OC)c(OC)cc34)cn2)n1 [Compound 4] | < 100 nM
6 | CCCn1cc(OCC(F)(F)F)c(C(=O)Nc2ccc(Oc3ccnc4cc(OC)c(OC)cc34)cn2)n1 [Compound 7] | < 100 nM
7 | CCn1cc(OCC2CCC2)c(C(=O)Nc2ccc(Oc3ccnc4cc(OC)c(OC)cc34)cn2)n1 [Compound 8] | < 100 nM
8 | COCCn1cc(OCC(F)(F)F)c(C(=O)Nc2ccc(Oc3ccnc4cc(OC)c(OC)cc34)cn2)n1 [Compound 10] | < 100 nM
9 | CNCCn1cc(OCC(F)(F)F)c(C(=O)Nc2ccc(Oc3ccnc4cc(OC)c(OC)cc34)cn2)n1 [Compound 11] | < 100 nM
10 | COc1cc2nccc(Oc3ccc(NC(=O)c4n[nH]cc4OCC(F)(F)F)nc3)c2cc1OC [Compound 16] | < 100 nM
11 | COc1cc2nccc(Oc3ccc(NC(=O)c4nn(CC5COC5)cc4OCC(F)(F)F)nc3)c2cc1OC [Compound 92] | < 100 nM
12 | COc1cc2nccc(Oc3ccc(NC(=O)c4nn(CC5COC5)cc4OCC(F)(F)F)cc3C)c2cc1OC [Compound 99] | < 100 nM
13 | COc1cc2nccc(Oc3ccc(NC(=O)c4nn(C5CCN(C)C5)cc4OCC(F)(F)F)cc3)c2cc1OC (stereo not shown) [Compound 100] | < 100 nM
14 | COc1cc2nccc(Oc3ccc(NC(=O)c4nn(C)cc4OCC(F)(F)F)nn3)c2cc1OC [Compound 102] | < 100 nM
15 | COc1cc2nccc(Oc3ccc(NC(=O)c4nn(CC(C)C)cc4OCC(F)(F)F)cn3)c2cc1OC [Compound 103] | < 100 nM
16 | COCCn1cc(OCC(F)(F)F)c(C(=O)Nc2ccc(Oc3ccnc4cc(OC)c(OC)cc34)nc2)n1 [Compound 104] | < 100 nM
17 | CCCn1cc(OCCOC)c(C(=O)Nc2ccc(Oc3ccnc4cc(OC)c(OC)cc34)cn2)n1 [Compound 105] | < 100 nM
18 | COCCOc1cn(C2CC2)nc1C(=O)Nc1ccc(Oc2ccnc3cc(OC)c(OC)cc23)cn1 [Compound 107] | < 100 nM
19 | COc1cc2nccc(Oc3ccc(NC(=O)c4nn(C5CC5)cc4OCC(F)F)nc3)c2cc1OC [Compound 109] | < 100 nM
20 | COc1cc2nccc(Oc3ccc(NC(=O)c4nn(C5CC5)cc4OCC(F)(F)F)nn3)c2cc1OC [Compound 112] | < 100 nM
21 | COc1cc2nccc(Oc3ccc(NC(=O)c4nn(CCOC5CC5)cc4OCC(F)(F)F)cc3C)c2cc1OC [Compound 117] | < 100 nM
22 | COc1cc2nccc(Oc3ccc(NC(=O)c4nn(CCOC5CC5)cc4OCC(F)(F)F)cc3)c2cc1OC [Compound 118] | < 100 nM
23 | CNCCn1cc(OCC(F)(F)F)c(C(=O)Nc2ccc(Oc3ccnc4cc(OC)c(OC)cc34)cc2)n1 [Compound 119] | 100 to 500 nM
24 | COc1cc2nccc(Oc3ccc(NC(=O)c4nn(C5CCCC5)cc4OCC(F)(F)F)nn3)c2cc1OC [Compound 121] | < 100 nM
25 | COc1cc2nccc(Oc3ccc(NC(=O)c4nn(C5CCNC5)cc4OCC(F)(F)F)nn3)c2cc1OC (stereo not shown) [Compound 122] | 100 to 500 nM
26 | COc1cc2nccc(Oc3ccc(NC(=O)c4nn(CC(C)C)cc4OCC(F)(F)F)nn3)c2cc1OC [Compound 124] | < 100 nM
27 | COc1cc2nccc(Oc3ccc(NC(=O)c4nn(CCN)cc4OCC(F)(F)F)nn3)c2cc1OC [Compound 125] | ≥ 500 nM
28 | COc1cc2nccc(Oc3ccc(NC(=O)c4nn(CCO)cc4OCC(F)(F)F)cn3)c2cc1OC [Compound 129] | 100 to 500 nM
29 | COc1cc2nccc(Oc3ccc(NC(=O)c4nn(CCOC5CC5)cc4OCC(F)(F)F)cn3)c2cc1OC [Compound 130] | < 100 nM
30 | COc1cc2nccc(Oc3ccc(NC(=O)c4nn(C5CCN(C)C5)cc4OCC(F)(F)F)cn3)c2cc1OC (stereo not shown) [Compound 133] | 100 to 500 nM
31 | COc1cc2nccc(Oc3ccc(NC(=O)c4nn(CC5COC5)cc4OCC(F)(F)F)cn3)c2cc1OC [Compound 134] | < 100 nM
32 | COc1cc2nccc(Oc3ccc(NC(=O)c4nn(CC(C)O)cc4OCC(F)(F)F)cn3)c2cc1OC (stereo not shown) [Compound 136] | < 100 nM
33 | CNCCn1cc(OCC(F)(F)F)c(C(=O)Nc2ccc(Oc3ccnc4cc(OC)c(OC)cc34)nc2)n1 [Compound 137] | ≥ 500 nM
34 | CCCn1cc(OCC(F)(F)F)c(C(=O)Nc2ccc(Oc3ccnc4cc(OC)c(OC)cc34)nc2)n1 [Compound 139] | < 100 nM

The next lines start with the values.

Row | Kd | SMILES
35 | < 100 nM | CCn1cc(OC(C)C)c(C(=O)Nc2ccc(Oc3ccnc4cc(OC)c(OC)cc34)cn2)n1 [Compound 6]
36 | < 100 nM | COc1cc2nccc(Oc3ccc(NC(=O)c4nn(CCN(C)C)cc4OCC(F)(F)F)nc3)c2cc1OC [Compound 9]
37 | < 100 nM | CCCn1cc(OCC(F)F)c(C(=O)Nc2ccc(Oc3ccnc4cc(OC)c(OC)cc34)cn2)n1 [Compound 12]
38 | < 100 nM | COc1cc2nccc(Oc3ccc(NC(=O)c4nn(C5CCN(C)C5)cc4OCC(F)(F)F)cc3F)c2cc1OC (stereo not shown) [Compound 96]
39 | < 100 nM | COc1cc2nccc(Oc3ccc(NC(=O)c4nn(CC5COC5)cc4OCC(F)(F)F)cc3F)c2cc1OC [Compound 97]
40 | < 100 nM | COc1cc2nccc(Oc3ccc(NC(=O)c4nn(C5CCN(C)C5)cc4OCC(F)(F)F)cc3C)c2cc1OC (stereo not shown) [Compound 98]
41 | < 100 nM | COc1cc2nccc(Oc3ccc(NC(=O)c4nn(CC5COC5)cc4OCC(F)(F)F)cc3)c2cc1OC [Compound 101]
42 | < 100 nM | CCCn1cc(OCC2COC2)c(C(=O)Nc2ccc(Oc3ccnc4cc(OC)c(OC)cc34)cn2)n1 [Compound 106]
43 | < 100 nM | COc1cc2nccc(Oc3ccc(NC(=O)c4nn(C5CC5)cc4OC(C)C)nc3)c2cc1OC [Compound 108]
44 | < 100 nM | COc1cc2nccc(Oc3ccc(NC(=O)c4nn(C5CC5)cc4OCCF)nc3)c2cc1OC [Compound 110]
45 | < 100 nM | COc1cc2nccc(Oc3ccc(NC(=O)c4nn(C5CC5)cc4OCC4CCC4)nc3)c2cc1OC [Compound 111]
46 | < 100 nM | COc1cc2nccc(Oc3ccc(NC(=O)c4nn(C5CC5)cc4OCCF)nn3)c2cc1OC [Compound 113]
47 | < 100 nM | CCCn1cc(OCC(F)(F)F)c(C(=O)Nc2ccc(Oc3ccnc4cc(OC)c(OC)cc34)c(C(F)(F)F)c2)n1 [Compound 114]
48 | < 100 nM | COc1cc2nccc(Oc3ccc(NC(=O)c4nn(CCOC5CC5)cc4OCC(F)(F)F)c(F)c3)c2cc1OC [Compound 115]
49 | < 100 nM | COc1cc2nccc(Oc3ccc(NC(=O)c4nn(CCOC5CC5)cc4OCC(F)(F)F)cc3F)c2cc1OC [Compound 116]
50 | < 100 nM | COc1cc2nccc(Oc3ccc(NC(=O)c4nn(CCOC5CC5)cc4OCC(F)(F)F)nn3)c2cc1OC [Compound 120]
51 | < 100 nM | COc1cc2nccc(Oc3ccc(NC(=O)c4nn(CC5COC5)cc4OCC(F)(F)F)nn3)c2cc1OC [Compound 123]
52 | < 100 nM | COCCn1cc(OCC(F)(F)F)c(C(=O)Nc2ccc(Oc3ccnc4cc(OC)c(OC)cc34)nn2)n1 [Compound 126]
53 | ≥ 500 nM | CNCCn1cc(OCC(F)(F)F)c(C(=O)Nc2ccc(Oc3ccnc4cc(OC)c(OC)cc34)nn2)n1 [Compound 127]
54 | < 100 nM | COc1cc2nccc(Oc3ccc(NC(=O)c4nn(C5CCOC5)cc4OCC(F)(F)F)nn3)c2cc1OC (stereo not shown) [Compound 128]
55 | < 100 nM | COc1cc2nccc(Oc3ccc(NC(=O)c4nn(C5CCCC5)cc4OCC(F)(F)F)cn3)c2cc1OC [Compound 131]
56 | ≥ 500 nM | COc1cc2nccc(Oc3ccc(NC(=O)c4nn(C5CCNC5)cc4OCC(F)(F)F)cn3)c2cc1OC (stereo not shown) [Compound 132]
57 | ≥ 500 nM | COc1cc2nccc(Oc3ccc(NC(=O)c4nn(CCN)cc4OCC(F)(F)F)cn3)c2cc1OC [Compound 135]
58 | < 100 nM | COc1cc2nccc(Oc3ccc(NC(=O)c4nn(C5CCOC5)cc4OCC(F)(F)F)cn3)c2cc1OC (stereo not shown) [Compound 138]
